Experimental data as given in patent publication US10259776B2, “Branched 3-phenylpropionic acid derivatives and their use” (BAYER INTELLECTUAL PROPERTY GMBH, priority 2011, dated 2019).

How the values were obtained:
[1] = target: sGC in the CHO reporter cell (Rattus norvegicus (Rat), UniProt P20595); assay: Action at a recombinant guanylate cyclase reporter cell line; format: cell-based; details: CHO reporter cell in vitro
Method: The cellular action of the compounds according to the invention is determined at a recombinant guanylate cyclase reporter cell line, as described in F. Wunder et al., Anal. Biochem. 339, 104-112 (2005).

[2] = target: Haem-containing sGC (recombinant soluble guanylate cyclase) (Rattus norvegicus (Rat), UniProt P20595); assay: Stimulation of recombinant soluble guanylate cyclase (sGC) in vitro, haem-containing enzyme; format: biochemical; details: for Stimulation (x-fold) of recombinant sGC, haem-containing sGC, basal: n = 5
From the text: Hoenicka, E. M. Becker, H. Apeler, T. Sirichoke, H. Schroeder, R. Gerzer and J.-P. Stasch, “Purified soluble guanylyl cyclase expressed in a baculovirus/Sf9 system: Stimulation by YC-1, nitric oxide, and carbon oxide”, J. Mol. Med. 77 (1999), 14-23. The haem-free guanylate cyclase is obtained by adding Tween 20 to the sample buffer (0.5% in the final concentration).
(§1) The activation of sGC by a test substance is reported as x-fold stimulation of the basal activity.

[3] = target: Haem-free sGC (recombinant soluble guanylate cyclase) (Rattus norvegicus (Rat), UniProt P20595); assay: Stimulation of recombinant soluble guanylate cyclase (sGC) in vitro, haem-free enzyme; format: biochemical; details: haem-free (0.5% Tween 20), n = 5
Method: Investigations on the stimulation of recombinant soluble guanylate cyclase (sGC) by the compounds according to the invention with and without sodium nitroprusside, and with and without the haem-dependent sGC inhibitor 1H-1,2,4-oxadiazolo[4,3a]quinoxalin-1-one (ODQ), are carried out by the method described in detail in the following reference: M. Hoenicka, E. M. Becker, H. Apeler, T. Sirichoke, H. Schroeder, R. Gerzer and J.-P. Stasch, “Purified soluble guanylyl cyclase expressed in a baculovirus/Sf9 system: Stimulation by YC-1, nitric oxide, and carbon oxide”, J. Mol. Med. 77 (1999), 14-23. The haem-free guanylate cyclase is obtained by adding Tween 20 to the sample buffer (0.5% in the final concentration).
as §1

Haem-containing sGC (recombinant soluble guanylate cyclase), sequence (P20595 whole entry): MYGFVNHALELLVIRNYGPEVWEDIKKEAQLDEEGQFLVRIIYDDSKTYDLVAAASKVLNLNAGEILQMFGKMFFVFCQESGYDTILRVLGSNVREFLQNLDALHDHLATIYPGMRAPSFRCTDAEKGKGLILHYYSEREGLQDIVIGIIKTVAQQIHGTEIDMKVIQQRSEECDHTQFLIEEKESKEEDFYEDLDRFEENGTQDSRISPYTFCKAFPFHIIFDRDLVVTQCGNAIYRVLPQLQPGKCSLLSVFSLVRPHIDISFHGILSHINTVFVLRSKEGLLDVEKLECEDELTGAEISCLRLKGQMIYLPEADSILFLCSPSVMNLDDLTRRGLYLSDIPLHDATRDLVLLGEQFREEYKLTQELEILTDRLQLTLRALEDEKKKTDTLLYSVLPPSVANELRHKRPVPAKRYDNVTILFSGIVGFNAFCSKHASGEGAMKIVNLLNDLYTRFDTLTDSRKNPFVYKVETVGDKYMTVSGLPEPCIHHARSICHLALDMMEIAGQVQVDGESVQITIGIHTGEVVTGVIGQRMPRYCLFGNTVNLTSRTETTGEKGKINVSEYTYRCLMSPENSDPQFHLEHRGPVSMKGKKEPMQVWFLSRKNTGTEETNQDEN
Haem-containing sGC (recombinant soluble guanylate cyclase), sequence (P19686 whole entry partner): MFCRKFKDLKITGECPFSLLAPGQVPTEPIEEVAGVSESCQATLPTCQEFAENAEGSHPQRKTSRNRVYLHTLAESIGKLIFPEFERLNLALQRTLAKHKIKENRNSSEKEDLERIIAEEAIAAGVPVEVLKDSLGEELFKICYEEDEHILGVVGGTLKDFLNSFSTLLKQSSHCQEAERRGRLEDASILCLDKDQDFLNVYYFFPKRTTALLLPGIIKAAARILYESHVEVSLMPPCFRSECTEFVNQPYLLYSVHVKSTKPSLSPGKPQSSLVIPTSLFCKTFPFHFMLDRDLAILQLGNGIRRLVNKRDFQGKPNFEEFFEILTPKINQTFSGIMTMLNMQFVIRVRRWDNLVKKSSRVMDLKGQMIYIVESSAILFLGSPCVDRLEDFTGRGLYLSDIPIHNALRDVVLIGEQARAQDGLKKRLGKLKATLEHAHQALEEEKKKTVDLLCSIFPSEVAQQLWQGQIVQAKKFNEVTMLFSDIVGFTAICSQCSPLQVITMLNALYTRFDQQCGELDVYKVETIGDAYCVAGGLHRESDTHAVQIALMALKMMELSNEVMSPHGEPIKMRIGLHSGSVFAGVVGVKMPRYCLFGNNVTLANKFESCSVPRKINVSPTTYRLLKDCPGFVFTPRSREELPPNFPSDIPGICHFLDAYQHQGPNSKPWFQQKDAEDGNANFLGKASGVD
sGC in the CHO reporter cell, sequence (P20595 whole entry): as the sequence (P20595 whole entry) above
sGC in the CHO reporter cell, sequence (P19686 whole entry partner): as the sequence (P19686 whole entry partner) above
Haem-free sGC (recombinant soluble guanylate cyclase), sequence (P20595 whole entry): as the sequence (P20595 whole entry) above
Haem-free sGC (recombinant soluble guanylate cyclase), sequence (P19686 whole entry partner): as the sequence (P19686 whole entry partner) above

CC(C)C(C)(CC(=O)O)c1ccc(Cl)c(NC(=O)[C@H](c2ccc(Cl)cc2)[C@@H](C)C(F)(F)F)c1 (single isomer, unassigned) [Example 4]
MEC (minimum effective concentration), sGC-activating activity in the CHO reporter cell [1]: 3 nM

CC(C)c1ccc([C@@H](C(=O)Nc2cc(C(CC(=O)O)C(C)C)ccc2Cl)[C@@H](C)C(F)(F)F)cc1 (some centres unmarked) [Example 10]
MEC (minimum effective concentration), sGC-activating activity in the CHO reporter cell [1]: 0.3 nM

CC(C)C(CC(=O)O)c1ccc(Cl)c(NC(=O)[C@H](c2ccc(Cl)cc2)[C@@H](C)C(F)(F)F)c1 (single isomer, unassigned; (+)) [Example 1]
MEC (minimum effective concentration), sGC-activating activity in the CHO reporter cell [1]: 3 nM

C[C@H](C(C(=O)Nc1cc(C(CC(=O)O)C2CC2(F)F)ccc1Cl)c1ccc(Cl)cc1)C(F)(F)F (stereo partly drawn) [Example 32, 3-(4-Chloro-3-{[(3R)-2-(4-chlorophenyl)-4,4,4-trifluoro-3-methylbutanoyl]amino}phenyl)-3-(2,2-difluorocyclopropyl)propanoic acid]
MEC (minimum effective concentration), sGC-activating activity in the CHO reporter cell [1]: 3 nM

C[C@H]([C@H](C(=O)Nc1cc(C(CC(=O)O)C2CCC2)ccc1Cl)c1ccc(Cl)cc1)C(F)(F)F (single isomer, unassigned; (+)) [Example 33]
MEC (minimum effective concentration), sGC-activating activity in the CHO reporter cell [1]: 1 nM

CC(C)C(CC(=O)O)c1ccc(Cl)c(NC(=O)C(c2ccc(Cl)cc2)C2CCC(F)(F)C2)c1 (centres unmarked) [Example 21]
MEC (minimum effective concentration), sGC-activating activity in the CHO reporter cell [1]: 10 nM

C[C@H]([C@H](C(=O)Nc1cc(C(CC(=O)O)C2CCC2)ccc1Cl)c1ccc(Cl)cc1)C(F)(F)F (single isomer, unassigned; (+)) [Example 34]
MEC (minimum effective concentration), sGC-activating activity in the CHO reporter cell [1]: 10 nM

CC(C)C(CC(=O)O)c1ccc(Cl)c(NC(=O)[C@H](c2ccc(Cl)c(F)c2)[C@@H](C)C(F)(F)F)c1 (some centres unmarked) [Example 9]
MEC (minimum effective concentration), sGC-activating activity in the CHO reporter cell [1]: 1 nM

C[C@H]([C@H](C(=O)Nc1cc(C(CC(=O)O)C2(C)CC2)ccc1Cl)c1ccc(Cl)cc1)C(F)(F)F (single isomer, unassigned) [Example 26]
MEC (minimum effective concentration), sGC-activating activity in the CHO reporter cell [1]: 10 nM

CC(C)C(CC(=O)O)c1ccc(Cl)c(NC(=O)[C@H](c2ccc(C(C)(C)C)cc2)[C@@H](C)C(F)(F)F)c1 (some centres unmarked) [Example 14]
MEC (minimum effective concentration), sGC-activating activity in the CHO reporter cell [1]: 0.3 nM

CC(C)C(CC(=O)O)c1ccc(Cl)c(NC(=O)[C@H](c2ccc(Cl)cc2)[C@@H](C)C(F)(F)F)c1 (single isomer, unassigned; (+)) [Example 2]
MEC (minimum effective concentration), sGC-activating activity in the CHO reporter cell [1]: 6.5 nM

C[C@H]([C@H](C(=O)Nc1cc(C(CC(=O)O)CC2CC2)ccc1Cl)c1ccc(Cl)cc1)C(F)(F)F (single isomer, unassigned) [Example 35]
MEC (minimum effective concentration), sGC-activating activity in the CHO reporter cell [1]: 0.3 nM

Cc1cc([C@@H](C(=O)Nc2cc(C(CC(=O)O)C(C)C)ccc2Cl)[C@@H](C)C(F)(F)F)ccc1Cl (some centres unmarked) [Example 17]
MEC (minimum effective concentration), sGC-activating activity in the CHO reporter cell [1]: 1 nM

C[C@H]([C@H](C(=O)Nc1cc(C(CC(=O)O)C2CC(F)(F)C2)ccc1Cl)c1ccc(Cl)cc1)C(F)(F)F (some centres unmarked) [Example 28]
MEC (minimum effective concentration), sGC-activating activity in the CHO reporter cell [1]: 30 nM

COc1cc([C@@H](C(=O)Nc2cc(C(CC(=O)O)C(C)C)ccc2Cl)[C@@H](C)C(F)(F)F)ccc1Cl (some centres unmarked) [Example 15]
MEC (minimum effective concentration), sGC-activating activity in the CHO reporter cell [1]: 3 nM

CC(C)C(CC(=O)O)c1ccc(Cl)c(NC(=O)[C@H](c2ccc(C3CC3(F)F)cc2)[C@@H](C)C(F)(F)F)c1 (some centres unmarked) [Example 13]
MEC (minimum effective concentration), sGC-activating activity in the CHO reporter cell [1]: 0.3 nM

CC(C)C(CC(=O)O)c1ccc(Cl)c(NC(=O)[C@H](c2ccc(F)cc2)[C@@H](C)C(F)(F)F)c1 (some centres unmarked) [Example 11]
MEC (minimum effective concentration), sGC-activating activity in the CHO reporter cell [1]: 3 nM

CC(C)C(CC(=O)O)c1ccc(Cl)c(NC(=O)C(c2ccc(CC(F)(F)F)cc2)C(C)C(F)(F)F)c1 (centres unmarked) [Example 12]
MEC (minimum effective concentration), sGC-activating activity in the CHO reporter cell [1]: 1 nM

CC(C)C(CC(=O)O)c1ccc(Cl)c(NC(=O)C(c2ccc(Cl)cc2)C2CCC(F)(F)C2)c1 (centres unmarked) [Example 18]
MEC (minimum effective concentration), sGC-activating activity in the CHO reporter cell [1]: 300 nM

CC(C)C(CC(=O)O)c1ccc(Cl)c(NC(=O)C(c2ccc(Cl)cc2)C2CCC(F)(F)C2)c1 (centres unmarked) [Example 20]
MEC (minimum effective concentration), sGC-activating activity in the CHO reporter cell [1]: 1000 nM

C[C@H]([C@H](C(=O)Nc1cc(C(C)(CC(=O)O)C2CC2)ccc1Cl)c1ccc(Cl)cc1)C(F)(F)F (some centres unmarked) [Example 7]
MEC (minimum effective concentration), sGC-activating activity in the CHO reporter cell [1]: 300 nM

C[C@H]([C@H](C(=O)Nc1cc(C(C)(CC(=O)O)C2CCC2)ccc1Cl)c1ccc(Cl)cc1)C(F)(F)F (single isomer, unassigned) [Example 6]
MEC (minimum effective concentration), sGC-activating activity in the CHO reporter cell [1]: 1 nM

C[C@H]([C@H](C(=O)Nc1cc(C(CC(=O)O)C2(F)CC2)ccc1Cl)c1ccc(Cl)cc1)C(F)(F)F (some centres unmarked) [Example 27]
MEC (minimum effective concentration), sGC-activating activity in the CHO reporter cell [1]: 3 nM

C[C@H](C(C(=O)Nc1cc(C(CC(=O)O)C2CC2(F)F)ccc1Cl)c1ccc(Cl)cc1)C(F)(F)F (stereo partly drawn) [Example 31, 3-(4-Chloro-3-{[(3R)-2-(4-chlorophenyl)-4,4,4-trifluoro-3-methylbutanoyl]amino}phenyl)-3-(2,2-difluorocyclopropyl)propanoic acid]
MEC (minimum effective concentration), sGC-activating activity in the CHO reporter cell [1]: 3 nM

CCc1ccc([C@@H](C(=O)Nc2cc(C(CC(=O)O)C(C)C)ccc2Cl)[C@@H](C)C(F)(F)F)cc1 (some centres unmarked) [Example 8]
MEC (minimum effective concentration), sGC-activating activity in the CHO reporter cell [1]: 1 nM

C[C@H]([C@H](C(=O)Nc1cc(C(CC(=O)O)C2CC2)ccc1Cl)c1ccc(Cl)cc1)C(F)(F)F (single isomer, unassigned; (+)) [Example 22]
Stimulation (x-fold) of recombinant sGC, haem-containing sGC, +0.01 μM DEA/NO ([2]; 0.01 μM Example 22): 4.4 ± 1.3 x-fold | Stimulation (x-fold) of recombinant sGC, haem-containing sGC, +10 μM ODQ ([2]; 0.01 μM Example 22): 5.7 ± 1.6 x-fold | Stimulation (x-fold) of recombinant sGC, haem-containing sGC, basal ([2]; 0.01 μM Example 22): 1.6 ± 0.3 x-fold | Stimulation (x-fold) of recombinant sGC, haem-containing sGC, +0.01 μM DEA/NO ([2]; 0.1 μM Example 22): 3.4 ± 0.9 x-fold | Stimulation (x-fold) of recombinant sGC, haem-containing sGC, +10 μM ODQ ([2]; 0.1 μM Example 22): 6.1 ± 1.7 x-fold | Stimulation (x-fold) of recombinant sGC, haem-containing sGC, basal ([2]; 0.1 μM Example 22): 1.6 ± 0.5 x-fold | Stimulation (x-fold) of recombinant sGC, haem-containing sGC, +0.01 μM DEA/NO ([2]; 1.0 μM Example 22): 4.4 ± 1.4 x-fold | Stimulation (x-fold) of recombinant sGC, haem-containing sGC, +10 μM ODQ ([2]; 1.0 μM Example 22): 8.4 ± 2.2 x-fold | Stimulation (x-fold) of recombinant sGC, haem-containing sGC, basal ([2]; 1.0 μM Example 22): 2.4 ± 1.0 x-fold | Stimulation (x-fold) of recombinant sGC, haem-containing sGC, +0.01 μM DEA/NO ([2]; 10 μM Example 22): 7.8 ± 2.5 x-fold | Stimulation (x-fold) of recombinant sGC, haem-containing sGC, +10 μM ODQ ([2]; 10 μM Example 22): 18.3 ± 5.4 x-fold | Stimulation (x-fold) of recombinant sGC, haem-containing sGC, basal ([2]; 10 μM Example 22): 4.9 ± 1.2 x-fold | Effect of combination with the NO donor DEA/NO on sGC stimulation ([2]; haem-containing sGC, combination with DEA/NO): no synergistic effect | Stimulation (x-fold) of recombinant sGC, haem-free sGC, basal ([3]; 0.01 μM Example 22): 1.2 ± 0.1 x-fold | Stimulation (x-fold) of recombinant sGC, haem-free sGC, basal ([3]; 0.1 μM Example 22): 1.6 ± 0.5 x-fold | Stimulation (x-fold) of recombinant sGC, haem-free sGC, basal ([3]; 1.0 μM Example 22): 4.9 ± 1.5 x-fold | Stimulation (x-fold) of recombinant sGC, haem-free sGC, basal ([3]; 10 μM Example 22): 14.2 ± 2.0 x-fold | MEC (minimum effective concentration), sGC-activating activity in the CHO reporter cell [1]: 1.8 nM

Cc1ccc([C@@H](C(=O)Nc2cc(C(CC(=O)O)C(C)C)ccc2Cl)[C@@H](C)C(F)(F)F)cc1 (some centres unmarked) [Example 16]
MEC (minimum effective concentration), sGC-activating activity in the CHO reporter cell [1]: 3 nM

COC(C)(C)C(CC(=O)O)c1ccc(Cl)c(NC(=O)[C@H](c2ccc(Cl)cc2)[C@@H](C)C(F)(F)F)c1 (some centres unmarked) [Example 25]
MEC (minimum effective concentration), sGC-activating activity in the CHO reporter cell [1]: 10 nM

C[C@H]([C@H](C(=O)Nc1cc(C(CC(=O)O)C2CC2)ccc1Cl)c1ccc(Cl)cc1)C(F)(F)F (some centres unmarked) [Example 23]
MEC (minimum effective concentration), sGC-activating activity in the CHO reporter cell [1]: 3 nM

CC(C)C(C)(CC(=O)O)c1ccc(Cl)c(NC(=O)[C@H](c2ccc(Cl)cc2)[C@@H](C)C(F)(F)F)c1 (single isomer, unassigned) [Example 3]
MEC (minimum effective concentration), sGC-activating activity in the CHO reporter cell [1]: 0.3 nM

CC(C)C(CC(=O)O)c1ccc(Cl)c(NC(=O)C(c2ccc(Cl)cc2)C2CCC(F)(F)C2)c1 (centres unmarked) [Example 19]
MEC (minimum effective concentration), sGC-activating activity in the CHO reporter cell [1]: 30 nM

C[C@H]([C@H](C(=O)Nc1cc(C(CC(=O)O)CC2CC2)ccc1Cl)c1ccc(Cl)cc1)C(F)(F)F (single isomer, unassigned) [Example 36]
MEC (minimum effective concentration), sGC-activating activity in the CHO reporter cell [1]: 3 nM

C[C@H]([C@H](C(=O)Nc1cc(C(C)(CC(=O)O)C2CCC2)ccc1Cl)c1ccc(Cl)cc1)C(F)(F)F (single isomer, unassigned) [Example 5]
MEC (minimum effective concentration), sGC-activating activity in the CHO reporter cell [1]: 0.3 nM
